In ChEMBL document CHEMBL1149462, “Total synthesis and biological evaluation of 22-hydroxyacuminatine” (J Med Chem, 2006):
pIC50: −log10 of the molar value.

Key:
[1] = test system: P388; experiment: Cytotoxicity against P388 murine leukemic cell line; type: functional, cell-based; details: Mus musculus
[2] = test system: P388CPT45; experiment: Cytotoxicity against topoisomerase 1-deficient subclone P388/CPT45 murine leukemic cell line; type: functional, cell-based; details: Mus musculus

## O=c1c2cccc(CO)c2cc2n1Cc1cc3ccccc3nc1-2
[1]
  pIC50: 4.45
[2]
  pIC50: 4.37
